Here are results for 44 molecules from ChEMBL document CHEMBL5143517, “Discovery and radiosensitization research of ursolic acid derivatives as SENP1 inhibitors” (Eur J Med Chem, 2022).

This data set can be described thus: Cytotoxicity against human HeLa cells assessed as inhibition of cell growth incubated for 72 hrs by CCK-8 assay. The format is toxicity, cell-based.

Structures are written as SMILES.

As usually defined, the IC50 is the midpoint of a concentration-inhibition curve.

Consider `C[C@H]1[C@H](C)CC[C@]2(C(=O)N[C@@H](C)c3ccccc3)CC[C@]3(C)C(=CC[C@@H]4[C@@]5(C)CC[C@H](O)C(C)(C)[C@@H]5CC[C@]43C)[C@H]12`, for which the half-inhibitory concentration (IC50) at 72 h was above 20 µM.
`CC(=O)O[C@H]1CC[C@]2(C)[C@H]3CC=C4[C@@H]5[C@@H](C)[C@H](C)CC[C@]5(C(=O)O)CC[C@@]4(C)[C@]3(C)CC[C@H]2C1(C)C` [O-ACETYLURSOLIC ACID]: the IC50 at 72 h is above 20 µM.
For the molecule `C[C@H]1[C@H](C)CC[C@]2(C(=O)OCCN3CCNCC3)CC[C@]3(C)C(=CC[C@@H]4[C@@]5(C)CC[C@H](O)C(C)(C)[C@@H]5CC[C@]43C)[C@H]12`, the IC50 at 72 h is above 20 µM.
Consider `C[C@H]1[C@H](C)CC[C@]2(C(=O)OCC(=O)NCCO)CC[C@]3(C)C(=CC[C@@H]4[C@@]5(C)CC[C@H](O)C(C)(C)[C@@H]5CC[C@]43C)[C@H]12`, for which the IC50 at 72 h was above 20 µM.
Take `C[C@H]1[C@H](C)CC[C@]2(C(=O)OCCBr)CC[C@]3(C)C(=CC[C@@H]4[C@@]5(C)CC[C@H](O)C(C)(C)[C@@H]5CC[C@]43C)[C@H]12`: the IC50 at 72 h was above 20 µM.
As to `C[C@H]1[C@H](C)CC[C@]2(C(=O)NCC(=O)O)CC[C@]3(C)C(=CC[C@@H]4[C@@]5(C)CC[C@H](O)C(C)(C)[C@@H]5CC[C@]43C)[C@H]12`, the IC50 at 72 h is above 20 µM.
`C[C@H]1[C@H](C)CC[C@]2(C(=O)OCCCCN3CCNCC3)CC[C@]3(C)C(=CC[C@@H]4[C@@]5(C)CC[C@H](O)C(C)(C)[C@@H]5CC[C@]43C)[C@H]12`: the IC50 at 72 h came out at 5.7 µM.
With `CC(=O)O[C@H]1CC[C@]2(C)[C@H]3CC=C4[C@@H]5[C@@H](C)[C@H](C)CC[C@]5(C(=O)N[C@@H](C)c5ccccc5)CC[C@@]4(C)[C@]3(C)CC[C@H]2C1(C)C`, the IC50 at 72 h is above 20 µM.
Take `C[C@H]1[C@H](C)CC[C@]2(C(=O)NCC(N)=O)CC[C@]3(C)C(=CC[C@@H]4[C@@]5(C)CC[C@H](O)C(C)(C)[C@@H]5CC[C@]43C)[C@H]12`: the IC50 at 72 h is above 20 µM.
`CNC(=O)CNC(=O)[C@]12CC[C@@H](C)[C@H](C)[C@H]1C1=CC[C@@H]3[C@@]4(C)CC[C@H](OC(C)=O)C(C)(C)[C@@H]4CC[C@@]3(C)[C@]1(C)CC2`: the IC50 at 72 h was above 20 µM.
For `C[C@H]1[C@H](C)CC[C@]2(C(=O)OCCN3CCCCC3)CC[C@]3(C)C(=CC[C@@H]4[C@@]5(C)CC[C@H](O)C(C)(C)[C@@H]5CC[C@]43C)[C@H]12` the value was above 20 µM.
For the molecule `CNC(=O)CCNC(=O)[C@]12CC[C@@H](C)[C@H](C)[C@H]1C1=CC[C@@H]3[C@@]4(C)CC[C@H](OC(C)=O)C(C)(C)[C@@H]4CC[C@@]3(C)[C@]1(C)CC2`, the IC50 at 72 h was above 20 µM.
In the case of `COC(=O)[C@]12CC[C@@H](C)[C@H](C)[C@H]1C1=CC[C@@H]3[C@@]4(C)CC[C@H](OC=O)C(C)(C)[C@@H]4CC[C@@]3(C)[C@]1(C)CC2`, the IC50 at 72 h was above 20 µM.
`C[C@H]1[C@H](C)CC[C@]2(C(=O)OCCCCBr)CC[C@]3(C)C(=CC[C@@H]4[C@@]5(C)CC[C@H](O)C(C)(C)[C@@H]5CC[C@]43C)[C@H]12` [BROMOBUTYL-3BETA-HYDROXY-URS-12-EN-28-OATE]: the IC50 at 72 h is above 20 µM.
`COC(=O)[C@@H]1CCCN1CCOC(=O)[C@]12CC[C@@H](C)[C@H](C)[C@H]1C1=CC[C@@H]3[C@@]4(C)CC[C@H](O)C(C)(C)[C@@H]4CC[C@@]3(C)[C@]1(C)CC2`: the IC50 at 72 h is above 20 µM.
For `CNC(=O)CN(C)C(=O)[C@]12CC[C@@H](C)[C@H](C)[C@H]1C1=CC[C@@H]3[C@@]4(C)CC[C@H](O)C(C)(C)[C@@H]4CC[C@@]3(C)[C@]1(C)CC2`, the 50% inhibitory concentration (IC50) at 72 h was above 20 µM.
`C[C@H]1[C@H](C)CC[C@]2(C(=O)OCc3ccccc3)CC[C@]3(C)C(=CC[C@@H]4[C@@]5(C)CC[C@H](O)C(C)(C)[C@@H]5CC[C@]43C)[C@H]12`: the concentration for half-maximal inhibition (IC50) at 72 h is above 20 µM.
In the case of `COC(=O)CCNC(=O)[C@]12CC[C@@H](C)[C@H](C)[C@H]1C1=CC[C@@H]3[C@@]4(C)CC[C@H](OC(C)=O)C(C)(C)[C@@H]4CC[C@@]3(C)[C@]1(C)CC2`, the IC50 at 72 h was above 20 µM.
In the case of `C[C@H]1[C@H](C)CC[C@]2(C(=O)OCCCCN3CCOCC3)CC[C@]3(C)C(=CC[C@@H]4[C@@]5(C)CC[C@H](O)C(C)(C)[C@@H]5CC[C@]43C)[C@H]12`, the IC50 at 72 h is above 20 µM.
For `C[C@H]1[C@H](C)CC[C@]2(C(=O)NCC(=O)NCC(O)CO)CC[C@]3(C)C(=CC[C@@H]4[C@@]5(C)CC[C@H](O)C(C)(C)[C@@H]5CC[C@]43C)[C@H]12` (some centres undefined) the value was above 20 µM.
Regarding `CNC(=O)COC(=O)[C@]12CC[C@@H](C)[C@H](C)[C@H]1C1=CC[C@@H]3[C@@]4(C)CC[C@H](O)C(C)(C)[C@@H]4CC[C@@]3(C)[C@]1(C)CC2`, the IC50 at 72 h was above 20 µM.
For `COC(=O)CNC(=O)[C@]12CC[C@@H](C)[C@H](C)[C@H]1C1=CC[C@@H]3[C@@]4(C)CC[C@H](OC(C)=O)C(C)(C)[C@@H]4CC[C@@]3(C)[C@]1(C)CC2` the value was above 20 µM; for `CC(=O)O[C@H]1CC[C@]2(C)[C@H]3CC=C4[C@@H]5[C@@H](C)[C@H](C)CC[C@]5(C(=O)NCC(=O)O)CC[C@@]4(C)[C@]3(C)CC[C@H]2C1(C)C`, above 20 µM; for `C[C@H]1[C@H](C)CC[C@]2(C(=O)N3CCC[C@H]3C(=O)O)CC[C@]3(C)C(=CC[C@@H]4[C@@]5(C)CC[C@H](O)C(C)(C)[C@@H]5CC[C@]43C)[C@H]12`, above 20 µM.
In the case of `C[C@H]1[C@H](C)CC[C@]2(C(=O)OCC3CCN(C(=O)OC(C)(C)C)CC3)CC[C@]3(C)C(=CC[C@@H]4[C@@]5(C)CC[C@H](O)C(C)(C)[C@@H]5CC[C@]43C)[C@H]12`, the IC50 at 72 h was above 20 µM.
For `CNC(=O)CCNC(=O)[C@]12CC[C@@H](C)[C@H](C)[C@H]1C1=CC[C@@H]3[C@@]4(C)CC[C@H](O)C(C)(C)[C@@H]4CC[C@@]3(C)[C@]1(C)CC2`, the IC50 at 72 h was above 20 µM.
On to `C[C@H]1[C@H](C)CC[C@]2(C(=O)NCC(=O)N(C)CCO)CC[C@]3(C)C(=CC[C@@H]4[C@@]5(C)CC[C@H](O)C(C)(C)[C@@H]5CC[C@]43C)[C@H]12`, for which the IC50 at 72 h was above 20 µM.
For the molecule `COC(=O)[C@]12CC[C@@H](C)[C@H](C)[C@H]1C1=CC[C@@H]3[C@@]4(C)CC[C@H](OC(C)=O)C(C)(C)[C@@H]4CC[C@@]3(C)[C@]1(C)CC2`, the IC50 at 72 h is above 20 µM.
For `CNC(=O)CN(C)C(=O)[C@]12CC[C@@H](C)[C@H](C)[C@H]1C1=CC[C@@H]3[C@@]4(C)CC[C@H](OC(C)=O)C(C)(C)[C@@H]4CC[C@@]3(C)[C@]1(C)CC2` the value was above 20 µM.
For `C[C@H]1[C@H](C)CC[C@]2(C(=O)OCC(=O)OC(C)(C)C)CC[C@]3(C)C(=CC[C@@H]4[C@@]5(C)CC[C@H](O)C(C)(C)[C@@H]5CC[C@]43C)[C@H]12`, the concentration for half-maximal inhibition (IC50) at 72 h is above 20 µM.
As to `C[C@H]1[C@H](C)CC[C@]2(C(=O)OCCN3CCNC(=O)C3)CC[C@]3(C)C(=CC[C@@H]4[C@@]5(C)CC[C@H](O)C(C)(C)[C@@H]5CC[C@]43C)[C@H]12`, the IC50 at 72 h was above 20 µM.
In the case of `C[C@H]1[C@H](C)CC[C@]2(C(=O)OCCO)CC[C@]3(C)C(=CC[C@@H]4[C@@]5(C)CC[C@H](O)C(C)(C)[C@@H]5CC[C@]43C)[C@H]12`, the IC50 at 72 h was above 20 µM.
For `C[C@H]1[C@H](C)CC[C@]2(C(=O)NCC(=O)NCCO)CC[C@]3(C)C(=CC[C@@H]4[C@@]5(C)CC[C@H](O)C(C)(C)[C@@H]5CC[C@]43C)[C@H]12`, the IC50 at 72 h was above 20 µM.
As for `COC(=O)[C@]12CC[C@@H](C)[C@H](C)[C@H]1C1=CC[C@@H]3[C@@]4(C)CC[C@H](O)C(C)(C)[C@@H]4CC[C@@]3(C)[C@]1(C)CC2` [METHYL URSOLATE], the IC50 at 72 h was above 20 µM.
Take `C[C@H]1[C@H](C)CC[C@]2(C(=O)N(C)CC(=O)O)CC[C@]3(C)C(=CC[C@@H]4[C@@]5(C)CC[C@H](O)C(C)(C)[C@@H]5CC[C@]43C)[C@H]12`: the IC50 at 72 h was above 20 µM.
`C[C@H]1[C@H](C)CC[C@]2(C(=O)OCCN3CCOCC3)CC[C@]3(C)C(=CC[C@@H]4[C@@]5(C)CC[C@H](O)C(C)(C)[C@@H]5CC[C@]43C)[C@H]12`: the IC50 at 72 h is above 20 µM.
Take `CC(=O)O[C@H]1CC[C@]2(C)[C@H]3CC=C4[C@@H]5[C@@H](C)[C@H](C)CC[C@]5(C(=O)NCCBr)CC[C@@]4(C)[C@]3(C)CC[C@H]2C1(C)C`: the IC50 at 72 h is above 20 µM.
For `C[C@H]1[C@H](C)CC[C@]2(C(N)=O)CC[C@]3(C)C(=CC[C@@H]4[C@@]5(C)CC[C@H](O)C(C)(C)[C@@H]5CC[C@]43C)[C@H]12`, the IC50 at 72 h is above 20 µM.
For `COC(=O)[C@@H]1CCCN1C(=O)[C@]12CC[C@@H](C)[C@H](C)[C@H]1C1=CC[C@@H]3[C@@]4(C)CC[C@H](OC(C)=O)C(C)(C)[C@@H]4CC[C@@]3(C)[C@]1(C)CC2` the value was above 20 µM; for `C[C@H]1[C@H](C)CC[C@]2(C(=O)OCCN3CCN(c4cccc(C(F)(F)F)c4)CC3)CC[C@]3(C)C(=CC[C@@H]4[C@@]5(C)CC[C@H](O)C(C)(C)[C@@H]5CC[C@]43C)[C@H]12`, above 20 µM; for `COC(=O)COC(=O)[C@]12CC[C@@H](C)[C@H](C)[C@H]1C1=CC[C@@H]3[C@@]4(C)CC[C@H](O)C(C)(C)[C@@H]4CC[C@@]3(C)[C@]1(C)CC2` [3BETA-HYDROXY-URS-12-EN-28-METHYL ACETOACETATE], above 20 µM.
In the case of `C[C@H]1[C@H](C)CC[C@]2(C(=O)NCCBr)CC[C@]3(C)C(=CC[C@@H]4[C@@]5(C)CC[C@H](O)C(C)(C)[C@@H]5CC[C@]43C)[C@H]12`, the IC50 at 72 h was above 20 µM.
As for `C[C@H]1[C@H](C)CC[C@]2(C(=O)OCCN3CCN(CCO)CC3)CC[C@]3(C)C(=CC[C@@H]4[C@@]5(C)CC[C@H](O)C(C)(C)[C@@H]5CC[C@]43C)[C@H]12`, the half-maximal inhibitory concentration (IC50) at 72 h is above 20 µM.
`C[C@H]1[C@H](C)CC[C@]2(C(=O)NCC(=O)N(CCO)CCO)CC[C@]3(C)C(=CC[C@@H]4[C@@]5(C)CC[C@H](O)C(C)(C)[C@@H]5CC[C@]43C)[C@H]12`: the 50% inhibitory concentration (IC50) at 72 h is above 20 µM.
